Broadly, the EC50 is the concentration at which the effect is half-maximal. Usually EC90 stands for the concentration at which the effect reaches the 90% level. By CC50 is commonly meant the concentration that lowers cell viability or growth by half.

The structures appear in SMILES notation.

Series [1] deals with Chikungunya virus. The series can be described thus: Antiviral activity against Chikungunya virus Indian Ocean strain 899 infected in African green monkey Vero cells assessed as inhibition of viral-induced cytopathic effect measured on day 5 post infection by MTS/PMS assay. Type of series: functional, organism-based, Indian Ocean 899. Conditions: for EC50 / EC90: Chikungunya virus, Indian Ocean 899, Vero, 120 h. In general terms: Protection from cytopathic effect is a common read-out in antiviral testing.

Series [2] has as its system Chikungunya virus. Kind of series: Antiviral activity against Chikungunya virus Indian Ocean strain 899 infected in African green monkey Vero cells assessed as inhibition of viral-induced cytopathic effect by measuring concentration required for maximum activity measured on day 5 post infection by MTS/PMS assay. Type of series: functional, Indian Ocean 899.
Series [3] is described as follows: Selectivity index, ratio of CC50 for African green monkey Vero cells to EC50 for Chikungunya virus Indian Ocean strain 899 infected in African green monkey Vero cells. Type of series: toxicity. Conditions: read-out: Ratio CC50/EC50.
Series [4] is described as follows: Cytotoxicity against African green monkey Vero cells by MTS/PMS assay. Type of series: cell-based. Conditions: chlorocebus sabaeus.

Turning to `Cc1ccc(/C=N/NC(=O)/C=C/c2ccc(-c3ccccc3)cc2)cc1`, in series [1], the Imax was determined as 78%, the EC50 came to 230 µM and the EC90 is more than 294 µM. Besides, in series [2], the Activity was determined as 294 µM. For the same compound, the selectivity ratio in series [3] was more than 1.3. The compound also gave a CC50 in series [4] of more than 294 µM.

In the case of `Cc1ccc(/C=N/NC(=O)/C=C/c2ccc(C(F)(F)F)cc2)cc1`, in series [1], the Imax is 61%, the EC50 stood at 96.3 µM and the EC90 was more than 150 µM. In addition, in series [2], the Activity amounted to 99 µM. Also, the selectivity ratio in series [3] is 2.1. In addition, the CC50 in series [4] worked out at 203 µM.

As for `Cc1ccc(-c2cn(CCc3ccccc3)nn2)cc1`, in series [1], the Imax is given as 74% and the EC50 came to 122 µM. Further, the Activity in series [2] worked out at 163 µM. The selectivity ratio in series [3] was 1.6. In series [4], the CC50 came out at 200 µM.

`CCOc1ccc(-c2nnc(CCc3ccccc3)o2)cc1OCC`: in series [1], the Imax was found to be 4%, the EC50 is more than 98.4 µM and the EC90 was more than 98.4 µM. The Activity in series [2] was determined as 73.9 µM.

For `CC(C)(C)c1ccc(C(=O)CC(=O)N/N=C/c2ccc(O)cc2)cc1`, in series [1], the Imax came to 87%, the EC50 stood at 7.2 µM and the EC90 is 8 µM. In addition, the Activity in series [2] is 7.9 µM. For the same compound, the selectivity ratio in series [3] turned out to be 2.3. In series [4], this compound returned a cytotoxic concentration (CC50) of 14.7 µM.

As to `Oc1ccc(/C=N/NC(=S)NCCc2ccccc2)cc1`, in series [1], the Imax came to 67% and the EC50 amounted to 48.3 µM. The Activity in series [2] worked out at 51 µM. Further, the selectivity ratio in series [3] amounted to 1.8. The compound also gave a CC50 in series [4] of 87.8 µM.

`CC(C)(C)c1ccc(CCc2nnc(-c3ccc(O)cc3)o2)cc1`: in series [1], the Imax turned out to be 69%, the EC50 was 108 µM and the EC90 was more than 103 µM. In addition, the Activity in series [2] came out at 103 µM. Further, in series [3], the selectivity ratio was determined as 1.8. The compound further showed a cytotoxic concentration (CC50) in series [4] of 191 µM.

Take `Cc1ccc(-c2[nH]c3ccccc3c2/C=N/NC(=S)NCCc2ccccc2)cc1`: in series [1], the Imax is 100%, the EC50 amounted to 1.8 µM and the EC90 was determined as 2.5 µM. Also, the Activity in series [2] was 2.5 µM. Further, in series [3], the selectivity ratio was 4.4. Half-maximal cytotoxicity in series [4] (CC50) was put at 7.8 µM.

As for `C/C(=N\NC(=O)N/C=C/c1ccc(C(C)(C)C)cc1)c1ccc(C2CCCCC2)cc1`, in series [1], the Imax was 90%, the EC50 turned out to be 42.3 µM and the 90% effect concentration (EC90) amounted to 78.8 µM. Further, the Activity in series [2] was determined as 79 µM. Moreover, the selectivity ratio in series [3] came out at 2.9. The same compound registered a CC50 in series [4] of 123 µM.

For `CCOc1ccc(/C=N/NC(=S)NCCc2ccccc2)cc1OCC`, in series [1], the Imax was 90%, the EC50 was 5.9 µM and the EC90 was found to be 9.8 µM. In addition, in series [2], the Activity is 9.3 µM. Besides, the selectivity ratio in series [3] turned out to be 18. In series [4], the CC50 stood at 109 µM.

With `CC(C)(C)c1ccc(/C=C/C(=O)Nc2nc3ccccc3[nH]2)cc1`, in series [1], the Imax turned out to be 38%, the EC50 is more than 157 µM and the EC90 is more than 157 µM. Also, in series [2], the Activity is 157 µM.

Regarding `Cc1ccc(-c2nnc(Cc3ccc(C(C)(C)C)cc3)o2)cc1`, in series [1], the Imax came out at 100%, the EC50 turned out to be 17.9 µM and the EC90 was determined as 22.7 µM. In addition, the Activity in series [2] was 27.2 µM.

On to `Cc1ccc(-c2nnc(CCc3ccccc3)o2)cc1`, for which, in series [1], the Imax worked out at 2%, the EC50 is more than 378 µM and the EC90 is more than 378 µM. Further, the Activity in series [2] worked out at 1 µM.

Take `C/C(=N\NC(=O)c1nc2ccccc2[nH]1)c1ccc(C2CCCCC2)cc1`: in series [1], the Imax is listed as 83% and the EC50 was 2.6 µM. In series [2], the Activity worked out at 4.3 µM. Further, the selectivity ratio in series [3] is 2.4. Further, it took 6.2 µM to reach half-maximal cytotoxicity in series [4] (CC50).

As for `CCOc1ccc(/C=N/NC(=O)/C=C/c2ccc(C(F)(F)F)cc2)cc1OCC`, in series [1], the Imax amounted to 75% and the EC50 was determined as 48.9 µM. Further, the Activity in series [2] stood at 69 µM. Also, the selectivity ratio in series [3] was 1.7. Moreover, the CC50 in series [4] came to 84.1 µM.

Consider `Cc1ccc(/C=N/NC(=O)N/C=C/c2ccc(C(C)(C)C)cc2)cc1`, for which, in series [1], the Imax was found to be 50%, the EC50 stood at 246 µM and the EC90 was more than 298 µM. The Activity in series [2] was determined as 187 µM. The selectivity ratio in series [3] was found to be 0.8. The same compound had a CC50 in series [4] of 192 µM.

With `CC(C)(C)c1ccc(/C=C/NC(=O)N/N=C/c2ccc(O)cc2)cc1`, in series [1], the Imax is on record as 89%, the EC50 came to 5.6 µM and the EC90 came to 7.5 µM. In series [2], the Activity came out at 7.4 µM. For the same compound, in series [3], the selectivity ratio is 1.9. This compound also registered a CC50 in series [4] of 10.4 µM.

For `Cc1ccc(/C=N/NC(=O)/C=C/c2ccc(C(C)C)cc2)cc1`, in series [1], the Imax worked out at 50% and the EC50 turned out to be 25.9 µM. Besides, the Activity in series [2] was found to be 20 µM. Also, the selectivity ratio in series [3] is 1. The compound further gave a CC50 in series [4] of 25 µM.

In the case of `Cc1ccc2[nH]c(NC(=O)/C=C/c3ccc(C(C)(C)C)cc3)nc2c1`, in series [1], the Imax was 47%, the EC50 is more than 300 µM and the EC90 is more than 300 µM. In series [2], the Activity was 300 µM.

As to `CC(C)(C)c1ccc(CCC(=O)Nc2nc3ccccc3[nH]2)cc1`, in series [1], the Imax came to 41%, the EC50 was more than 311 µM and the EC90 is more than 311 µM. For the same compound, the Activity in series [2] came to 311 µM.

As to `Cc1ccc2[nH]c(NC(=O)CCc3ccc(C(C)(C)C)cc3)nc2c1`, in series [1], the Imax is recorded as 8%, the concentration giving a half-maximal response (EC50) was more than 298 µM and the EC90 is more than 298 µM. Also, the Activity in series [2] stood at 1.6 µM.

Regarding `CCOc1ccc(-c2nnc(CCc3ccc(C(C)(C)C)cc3)o2)cc1OCC`, in series [1], the Imax is 61% and the EC50 came to 12.4 µM. Further, in series [2], the Activity turned out to be 13.5 µM. The selectivity ratio in series [3] was determined as 1.2. The midpoint of cytotoxicity in series [4], the CC50, lay at 15.5 µM.

Consider `CCOc1ccc(-c2nnc(Cc3ccc(C(C)(C)C)cc3)o2)cc1OCC`, for which, in series [1], the Imax was found to be 15% and the EC50 came out at 39.7 µM. For the same compound, the Activity in series [2] turned out to be 131.4 µM.

With `CCOc1ccc(/C=N/NC(=O)CC(=O)c2ccc(C(C)(C)C)cc2)cc1OCC`, in series [1], the Imax is given as 4%, the EC50 was more than 244 µM and the EC90 was more than 244 µM. Also, the Activity in series [2] was determined as 244 µM. In series [4], this compound yielded a CC50 of 81 µM.

Regarding `Cc1ccc(/C=N/NC(=O)CC(=O)c2ccc(C(C)(C)C)cc2)cc1`, in series [1], the Imax came to 13%, the EC50 is more than 74 µM and the EC90 is more than 74 µM. Besides, the Activity in series [2] worked out at 74 µM. The compound also returned a CC50 in series [4] of 84 µM.

As to `C/C(=N\NC(=S)NCCc1ccccc1)c1ccc(C2CCCCC2)cc1`, in series [1], the Imax was found to be 90%, the EC50 worked out at 4.3 µM and the EC90 was 5.9 µM. The Activity in series [2] came to 6 µM. In series [3], the selectivity ratio stood at 12.2. Besides, it took 52.9 µM to reach half-maximal cytotoxicity in series [4] (CC50).

These data come from ChEMBL document CHEMBL4196052, “Rational modifications on a benzylidene-acrylohydrazide antiviral scaffold, synthesis and evaluation of bioactivity against Chikungunya virus” (Eur J Med Chem, 2018).
